Source: patent EP3046573B1, “AMYLIN ANALOGUES” (Zealand Pharma A/S, priority 2013, dated 2015)
Numbered stars: 1 amine (or outer) side, 2 acyl side, 3 side chain; on linkers, the order of the positions; unused ones are H or OH. Bridge positions count the residues as written; N and C are the ends. Square brackets hold non-standard residues; d marks the D form. Peptide text beside a SMILES is read from it. * marks the point of attachment. C20 diacid = O=C(O)CCCCCCCCCCCCCCCCCCC(=O)*; γGlu = O=C(O)[C@H](CCC(=O)[*:2])N[*:1]; Hyp = O=C(O)[C@@H]1C[C@@H](O)CN1; NMeI = CC[C@H](C)[C@H](NC)C(=O)O; Sar = CNCC(=O)O

Legend:
[1] = target: T1, human amylin receptor 3 (hAMYR3) consisting of hCTR2 co-expressed with human Receptor Activity Modifying Protein 3 (hRAMP3) (Homo sapiens, UniProt O60896+P30988); assay: hAMYR3 assay: induction of cAMP (AlphaScreen cAMP Assay kit) in COS7 cells expressing hAMYR3; type: cell-based; conditions: cAMP induction in COS7 cells expressing hAMYR3; average of a minimum of 3 determinations; read-out: hAMY R3 EC50
T1 construct: expressed in transfected cells
T1 sequence (P30988 25-474): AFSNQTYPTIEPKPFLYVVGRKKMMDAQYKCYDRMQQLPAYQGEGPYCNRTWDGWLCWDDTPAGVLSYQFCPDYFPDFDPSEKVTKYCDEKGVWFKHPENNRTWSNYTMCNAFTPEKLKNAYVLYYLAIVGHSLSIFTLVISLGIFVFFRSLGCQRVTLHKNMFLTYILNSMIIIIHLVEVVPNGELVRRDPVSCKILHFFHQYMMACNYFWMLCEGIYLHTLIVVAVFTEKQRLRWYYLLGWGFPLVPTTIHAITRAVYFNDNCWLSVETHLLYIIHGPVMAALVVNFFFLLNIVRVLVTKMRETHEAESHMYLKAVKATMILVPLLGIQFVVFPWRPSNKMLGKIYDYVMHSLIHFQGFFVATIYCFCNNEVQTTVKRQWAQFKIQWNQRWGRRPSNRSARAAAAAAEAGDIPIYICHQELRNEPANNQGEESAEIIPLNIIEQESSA
T1 sequence (O60896 24-148 partner): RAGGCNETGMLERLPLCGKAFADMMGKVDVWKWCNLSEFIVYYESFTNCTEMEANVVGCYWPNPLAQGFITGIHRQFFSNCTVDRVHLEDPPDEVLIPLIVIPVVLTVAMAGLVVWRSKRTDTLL
Method in brief: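 cAMP accumulation read by AlphaScreen in lysates of RAMP-naive COS7 cells stably transfected with hCTR2 plus hRAMP3. Cells exposed to peptide dilutions for 15 min, 37° C, with 100 µM IBMX; 4PL fitting gave EC50 and efficacy relative to pramlintide.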

[2] = target: T2, human calcitonin receptor (hCTR2) (Homo sapiens, UniProt P30988); assay: hCTR2 assay: induction of cAMP (AlphaScreen cAMP Assay kit) in COS7 cells expressing hCTR2; type: cell-based; conditions: cAMP induction in COS7 cells expressing hCTR2; average of a minimum of 3 determinations; read-out: hCTR2 EC50
T2 construct: expressed in transfected cells
T2 sequence (P30988 25-474): T1 sequence (P30988 25-474)
Method in brief: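 Cells were seeded one day ahead, washed, then exposed to rising peptide concentrations for 15 min at 37° C in the presence of 100 µM IBMX. After lysis for 10 min at room temperature, cAMP was quantified by AlphaScreen and EC50 values derived by 4PL fitting.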

[3] = Solubility assessment (turbidity absorbance at 325 nm); type: physicochemical; conditions: stock 2 mg/ml diluted 1:1, ambient temperature (typically 25°C), n=1; for Solubility, Acetate buffer pH 4: 100 mM acetate buffer pH 4.0; for Solubility, Acetate buffer pH 5: 100 mM acetate buffer pH 5.0; for Solubility, Histidine buffer pH 6: 100 mM histidine buffer pH 6.0; for Solubility, Histidine buffer pH 7: 100 mM histidine buffer pH 7.0; for Solubility, Phosphate buffer pH 6: 100 mM phosphate buffer pH 6.0; for Solubility, Phosphate buffer pH 7: 100 mM phosphate buffer pH 7.0; for Solubility, Phosphate buffer pH 7.5: 100 mM phosphate buffer pH7.5
Method in brief: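 Read-out: turbidity as absorbance at 325 nm (280 nm also read), single samples, ambient temperature of typically 25°C. Samples were a 1:1 mix of 2 mg/ml stock (water, pH 2.5) with 100 mM acetate, histidine or phosphate buffers spanning pH 4.0–7.5. Cut-off: A325 ≤ 0.02 indicates ≥ 1 mg/ml.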

| EC50 [1] [nM] | EC50 [2] [nM] | Solubility, Acetate buffer pH 4 [3] | Solubility, Acetate buffer pH 5 [3] | Solubility, Histidine buffer pH 6 [3] | Solubility, Histidine buffer pH 7 [3] | Solubility, Phosphate buffer pH 6 [3] | Solubility, Phosphate buffer pH 7 [3] | Solubility, Phosphate buffer pH 7.5 [3] | SMILES |
| --- | --- | --- | --- | --- | --- | --- | --- | --- | --- |
| 0.14 | 0.1 | SS (SS indicates solubility ≥ 1mg/ml) | SS (SS indicates solubility ≥ 1mg/ml) | SS (SS indicates solubility ≥ 1mg/ml) | SS (SS indicates solubility ≥ 1mg/ml) | SS (SS indicates solubility ≥ 1mg/ml) | SS (SS indicates solubility ≥ 1mg/ml) | SS (SS indicates solubility ≥ 1mg/ml) | CC[C@H](C)[C@@H](C(=O)N[C@@H](CC(C)C)C(=O)N[C@@H](CO)C(=O)N[C@@H](CO)C(=O)N[C@H](C(=O)N[C@@H](CC(=O)O)C(=O)N[C@H](C(=O)NCC(=O)N[C@@H](CO)C(=O)N[C@@H](CC(=O)O)C(=O)N[C@H](C(=O)N1CCC[C@H]1C(N)=O)[C@@H](C)O)C(C)C)[C@@H](C)O)N(C)C(=O)[C@H](C)NC(=O)CN(C)C(=O)[C@H](Cc1ccccc1)NC(=O)[C@H](CO)NC(=O)[C@H](CO)NC(=O)[C@H](CO)NC(=O)[C@H](CO)NC(=O)[C@H](CCCNC(=N)N)NC(=O)[C@H](Cc1c[nH]cn1)NC(=O)[C@H](CC(C)C)NC(=O)[C@H](Cc1ccccc1)NC(=O)[C@H](CCC(=O)O)NC(=O)[C@H](C)NC(=O)[C@H](CC(C)C)NC(=O)[C@H](CCCNC(=N)N)NC(=O)[C@H](CCC(=O)O)NC(=O)[C@@H](NC(=O)[C@H](C)NC(=O)[C@@H]1CSSC[C@H](NC(=O)[C@H](CCCCN)NC(=O)[C@H](CCCCN)NC(=O)CC[C@H](NC(=O)CCCCCCCCCCCCCCCCCCC(=O)O)C(=O)O)C(=O)N[C@@H](CC(N)=O)C(=O)N[C@@H]([C@@H](C)O)C(=O)N[C@@H](C)C(=O)N[C@@H]([C@@H](C)O)C(=O)N1)[C@@H](C)O [Compound 159, [19CD]-isoGlu-KKC()NTATC()ATERLAEFLHRSSSSF-Gly(Me)-A-Ile(Me)-LSSTDVGSDTP-NH2] ({C20 diacid-γGlu}-KKCNTATCATERLAEFLHRSSSSF[Sar]A[NMeI]LSSTDVGSDTP-NH2; disulfide 3-8) |
| 0.14 | 0.13 | SS (SS indicates solubility ≥ 1mg/ml) | SS (SS indicates solubility ≥ 1mg/ml) | SS (SS indicates solubility ≥ 1mg/ml) | SS (SS indicates solubility ≥ 1mg/ml) | SS (SS indicates solubility ≥ 1mg/ml) | SS (SS indicates solubility ≥ 1mg/ml) | SS (SS indicates solubility ≥ 1mg/ml) | CC[C@H](C)[C@@H](C(=O)N[C@@H](CC(C)C)C(=O)N[C@@H](CO)C(=O)N[C@@H](CO)C(=O)N[C@H](C(=O)N[C@@H](CC(=O)O)C(=O)N[C@H](C(=O)NCC(=O)N[C@@H](CO)C(=O)N[C@@H](CC(=O)O)C(=O)N[C@H](C(=O)N1CCC[C@H]1C(N)=O)[C@@H](C)O)C(C)C)[C@@H](C)O)N(C)C(=O)[C@H](C)NC(=O)CN(C)C(=O)[C@H](Cc1ccccc1)NC(=O)[C@H](CO)NC(=O)[C@H](CO)NC(=O)[C@H](CO)NC(=O)[C@H](CO)NC(=O)[C@H](CCCNC(=N)N)NC(=O)[C@H](Cc1c[nH]cn1)NC(=O)[C@H](CC(C)C)NC(=O)[C@H](Cc1ccccc1)NC(=O)[C@H](CCC(=O)O)NC(=O)[C@H](C)NC(=O)[C@H](CC(C)C)NC(=O)[C@H](CCCNC(=N)N)NC(=O)[C@H](CCC(=O)O)NC(=O)[C@@H](NC(=O)[C@H](C)NC(=O)[C@@H]1CSSC[C@H](NC(=O)[C@H](CCCNC(=N)N)NC(=O)CC[C@H](NC(=O)CCCCCCCCCCCCCCCCCCC(=O)O)C(=O)O)C(=O)N[C@@H](CC(N)=O)C(=O)N[C@@H]([C@@H](C)O)C(=O)N[C@@H](C)C(=O)N[C@@H]([C@@H](C)O)C(=O)N1)[C@@H](C)O [Compound 160, [19CD]-isoGlu-RC()NTATC()ATERLAEFLHRSSSSF-Gly(Me)-A-Ile(Me)-LSSTDVGSDTP-NH2] ({C20 diacid-γGlu}-RCNTATCATERLAEFLHRSSSSF[Sar]A[NMeI]LSSTDVGSDTP-NH2; disulfide 2-7) |
| 0.74 | 0.42 | SS (SS indicates solubility ≥ 1mg/ml) | SS (SS indicates solubility ≥ 1mg/ml) | SS (SS indicates solubility ≥ 1mg/ml) | SS (SS indicates solubility ≥ 1mg/ml) | SS (SS indicates solubility ≥ 1mg/ml) | II (II indicates solubility ≤ 1 mg/ml) | SS (SS indicates solubility ≥ 1mg/ml) | CC[C@H](C)[C@@H](C(=O)N[C@@H](CC(C)C)C(=O)N[C@@H](CO)C(=O)N[C@@H](CO)C(=O)N[C@H](C(=O)N[C@@H](CCC(=O)O)C(=O)N[C@H](C(=O)NCC(=O)N[C@@H](CO)C(=O)N[C@@H](CCC(=O)O)C(=O)N[C@H](C(=O)N1CCC[C@H]1C(N)=O)[C@@H](C)O)C(C)C)[C@@H](C)O)N(C)C(=O)[C@H](C)NC(=O)CN(C)C(=O)[C@H](Cc1ccccc1)NC(=O)[C@H](CO)NC(=O)[C@H](CO)NC(=O)[C@H](CO)NC(=O)[C@H](CO)NC(=O)[C@H](CCCNC(=N)N)NC(=O)[C@H](Cc1c[nH]cn1)NC(=O)[C@H](CC(C)C)NC(=O)[C@H](Cc1ccccc1)NC(=O)[C@H](CCC(=O)O)NC(=O)[C@H](C)NC(=O)[C@H](CC(C)C)NC(=O)[C@H](CCCNC(=N)N)NC(=O)[C@H](CCC(=O)O)NC(=O)[C@@H](NC(=O)[C@H](C)NC(=O)[C@@H]1CSSC[C@H](NC(=O)[C@H](CCCCN)NC(=O)[C@H](CCCCN)NC(=O)CC[C@H](NC(=O)CCCCCCCCCCCCCCCCCCC(=O)O)C(=O)O)C(=O)N[C@@H](CCC(=O)O)C(=O)N[C@@H]([C@@H](C)O)C(=O)N[C@@H](C)C(=O)N[C@@H]([C@@H](C)O)C(=O)N1)[C@@H](C)O [Compound 163, [19CD]-isoGlu-KKC()ETATC()ATERLAEFLHRSSSSF-Gly(Me)-A-Ile(Me)-LSSTEVGSETP-NH2] ({C20 diacid-γGlu}-KKCETATCATERLAEFLHRSSSSF[Sar]A[NMeI]LSSTEVGSETP-NH2; disulfide 3-8) |
| 0.27 | 0.11 | SS (SS indicates solubility ≥ 1mg/ml) | SS (SS indicates solubility ≥ 1mg/ml) | SS (SS indicates solubility ≥ 1mg/ml) | SS (SS indicates solubility ≥ 1mg/ml) | SS (SS indicates solubility ≥ 1mg/ml) | II (II indicates solubility ≤ 1 mg/ml) | SS (SS indicates solubility ≥ 1mg/ml) | CC[C@H](C)[C@@H](C(=O)N[C@@H](CC(C)C)C(=O)N[C@@H](CO)C(=O)N[C@@H](CO)C(=O)N[C@H](C(=O)N[C@@H](CCC(=O)O)C(=O)N[C@H](C(=O)NCC(=O)N[C@@H](CO)C(=O)N[C@@H](CCC(=O)O)C(=O)N[C@H](C(=O)N1C[C@H](O)C[C@H]1C(N)=O)[C@@H](C)O)C(C)C)[C@@H](C)O)N(C)C(=O)CN(C)C(=O)[C@H](Cc1ccccc1)NC(=O)[C@H](CO)NC(=O)[C@H](CO)NC(=O)[C@H](CCCNC(=N)N)NC(=O)[C@H](Cc1c[nH]cn1)NC(=O)[C@H](CC(C)C)NC(=O)[C@H](Cc1ccccc1)NC(=O)[C@H](CCC(=O)O)NC(=O)[C@H](C)NC(=O)[C@H](CC(C)C)NC(=O)[C@H](CCCNC(=N)N)NC(=O)[C@H](CCC(=O)O)NC(=O)[C@@H](NC(=O)[C@H](C)NC(=O)[C@@H]1CSSC[C@H](NC(=O)[C@H](Cc2c[nH]c3ccccc23)NC(=O)CC[C@H](NC(=O)CCCCCCCCCCCCCCCCCCC(=O)O)C(=O)O)C(=O)NCC(=O)N[C@@H]([C@@H](C)O)C(=O)N[C@@H](C)C(=O)N[C@@H]([C@@H](C)O)C(=O)N1)[C@@H](C)O [Compound 165, [19CD]-isoGlu-WC()GTATC()ATERLAEFLHRSSF-Gly(Me)-Ile(Me)-LSSTEVGSET-Hyp-NH2] ({C20 diacid-γGlu}-WCGTATCATERLAEFLHRSSF[Sar][NMeI]LSSTEVGSET[Hyp]-NH2; disulfide 2-7) |
